The target in the test is T1, MT1-MMP hemopexin domain (Homo sapiens, UniProt P50281).
T1 construct: residues Cys319-Gly511 from the human gene; His6 (N); made in house; host or cells: HEK293 cells (transient, pEXPR-IBA42 vector)
The experiment in a line: Fluorescence polarisation competition binding assay. The following applies: for Ki: human MT1-MMP. An excerpt: The MT1-MMP hemopexin-like repeats (also known as the MT1-MMP hemopexin domain), residues Cys319-Gly511 from the human gene, were transiently expressed in HEK293 cells as secreted N-terminally His6-tagged soluble protein, using the pEXPR-IBA42 (IBA) expression vector. Following expression, the protein was purified by Nickel-NTA affinity chromatography followed by gel filtration, and purity was checked by SDS-PAGE. Batch to batch variability was also monitored by fluorescence thermal shift experiments in the presence/absence of a hemopexin domain binding bicycle.
Binding affinity was measured using competition assays using Fluorescence Polarisation (anisotropy).
Fluoresceination may be performed on the N-terminal amino group of the peptide, which is separated from the bicycle core sequence by a sarcosine spacer (usually Sar5). This can be done during Fmoc solid phase synthesis or post-synthetically (after cyclisation with TBMB and purification) if the N-terminal amino group is unique to the peptide. Fluoresceination can also be performed on the C-terminus, usually on a Lysine introduced as the first C-terminal residue, which is then separated from the bicycle core sequence by a sarcosine spacer (usually Sar6). Thus, N-terminal tracers can have a molecular format described as Fluo-Gly-Sar5-A(BicycleCoreSequence), and (BicycleCoreSequence)-A-Sar6-K(Fluo) for a C-terminally fluoresceinated construct. Fluorescent tracers used in the Examples are A-(17-69)-A-Sar6-K(Fluo), A-(17-69-07)-A-Sar6-K(Fluo), and A-(17-69-12)-A-Sar6-K(Fluo).
Here, a pre-formed complex of PEX with the fluorescent PEX-binding tracer is titrated with free, non-fluoresceinated bicyclic peptide. Since all 17-69-based peptides are expected to bind at the same site, the titrant will displace the fluorescent tracer from PEX. Dissociation of the complex can be measured quantitatively, and the Kd of the competitor (titrant) to the target protein determined. The advantage of the competition method is that the affinities of non-fluoresceinated bicyclic peptides can be determined accurately and rapidly.
Subsequently, the non-fluorescent competitor bicyclic peptide (usually just the bicycle core sequence) is titrated, such that it displaces the fluorescent tracer from the target protein. The displacement of the tracer is measured and associated with a drop in fluorescence polarisation. The drop in fluorescence polarisation is proportional to the fraction of target protein bound with the non-fluorescent titrant, and thus is a measure of the affinity of titrant to target protein.
The raw data is fit to the analytical solution of the cubic equation that describes the equilibria between fluorescent tracer, titrant, and binding protein. The fit requires the value of the affinity of fluorescent tracer to the target protein, which can be determined separately by direct binding FP experiments (see previous section).

Setting [1] is: bicycle peptides, read-out: Binding Affinity Ki (h).

Structures are written as SMILES. Like-named read-outs stand apart in the source and are kept apart here. Numbered stars: 1 amine (or outer) side, 2 acyl side, 3 side chain; on linkers, the order of the positions; unused ones are H or OH. Bridge positions count the residues as written; N and C are the ends. Square brackets hold non-standard residues; d marks the D form. Peptide text beside a SMILES is read from it. 1Nal = N[C@@H](Cc1cccc2ccccc12)C(=O)O; TBMB = c1c(C[*:1])cc(C[*:3])cc1C[*:2]; Tle = CC(C)(C)[C@H](N)C(=O)O; βAla = NCCC(=O)O; Sar = CNCC(=O)O

`C[C@H](NC(=O)CN(C)C(=O)CN(C)C(=O)CN(C)C(=O)CN(C)C(=O)CN(C)C(=O)CN(C)C(=O)CN(C)C(=O)CN(C)C(=O)CN(C)C(=O)CN(C)C(=O)CCN)C(=O)N[C@H]1CSCc2cc3cc(c2)CSC[C@H](NC(=O)[C@@H](C)NC(=O)[C@H](Cc2cccc4ccccc24)NC(=O)[C@H](CCC(=O)O)NC(=O)[C@H](CC(N)=O)NC(=O)[C@@H](C)NC1=O)C(=O)N[C@@H](CCC(=O)O)C(=O)N[C@@H](CC(=O)O)C(=O)N[C@@H](Cc1ccccc1)C(=O)N[C@@H](Cc1ccc(O)cc1)C(=O)N[C@@H](CC(=O)O)C(=O)N[C@@H](C(C)(C)C)C(=O)N[C@H](C(N)=O)CSC3` [17-69-07-N241, H-(β-Ala)-Sar10-Ala-Cys-(D-Ala)-Asn-Glu-(1Nal)-(D-Ala)-Cys-Glu-Asp-Phe-Tyr-Asp-(tBuGly)-Cys-NH2, reference compound] (H-[βAla][Sar][Sar][Sar][Sar][Sar][Sar][Sar][Sar][Sar][Sar]AC[dA]NE[1Nal][dA]CEDFYD[Tle]C-NH2; linker 13-19-26 via TBMB) showed a Kd of 0.23 nM.

For `CC(=O)N[C@@H](C)C(=O)N[C@H]1CNCc2cc3cc(c2)CSC[C@H](NC(=O)[C@@H](C)NC(=O)[C@H](Cc2cccc4ccccc24)NC(=O)[C@H](CCC(=O)O)NC(=O)[C@H](CC(N)=O)NC(=O)[C@@H](C)NC1=O)C(=O)N[C@@H](CCC(=O)O)C(=O)N[C@@H](CC(=O)O)C(=O)N[C@@H](Cc1ccccc1)C(=O)N[C@@H](Cc1ccc(O)cc1)C(=O)N[C@@H](CC(=O)O)C(=O)N[C@@H](C(C)(C)C)C(=O)N[C@H](C(N)=O)CNC3` [17-69-07-N385, Ac-A(Dap)(D-Ala)NE(1Nal)(D-Ala)CEDFYD(tBuGly)(Dap)], binding was characterised by a dissociation constant (Kd) of 0.45 nM.

Consider `CC(=O)N[C@@H](C)C(=O)N[C@H]1CN(C)Cc2cc3cc(c2)CN(C)C[C@@H](C(N)=O)NC(=O)[C@H](C(C)(C)C)NC(=O)[C@H](CC(=O)O)NC(=O)[C@H](Cc2ccc(O)cc2)NC(=O)[C@H](Cc2ccccc2)NC(=O)[C@H](CC(=O)O)NC(=O)[C@H](CCC(=O)O)NC(=O)[C@H](CSC3)NC(=O)[C@@H](C)NC(=O)[C@H](Cc2cccc3ccccc23)NC(=O)[C@H](CCC(=O)O)NC(=O)[C@H](CC(N)=O)NC(=O)[C@@H](C)NC1=O` [17-69-07-N426, Ac-A(Dap(Me))(D-Ala)NE(1Nal)(D-Ala)CEDFYD(tBuGly)(Dap(Me))], for which the Kd (competition FP, bicycle peptides, read-out: measured affinity (Kd) to MT1-MMP) was found to be 0.36 nM.

Molecule `CC(=O)N[C@@H](C)C(=O)N[C@H]1CNCc2cc3cc(c2)CSC[C@H](NC(=O)[C@@H](C)NC(=O)[C@H](Cc2cccc4ccccc24)NC(=O)[C@H](CCC(=O)O)NC(=O)[C@H](CC(N)=O)NC(=O)[C@@H](C)NC1=O)C(=O)N[C@@H](CCC(=O)O)C(=O)N[C@@H](CC(=O)O)C(=O)N[C@@H](Cc1ccccc1)C(=O)N[C@@H](Cc1ccccc1)C(=O)N[C@@H](CC(=O)O)C(=O)N[C@@H](C(C)(C)C)C(=O)N[C@H](C(N)=O)CNC3` [17-69-07-N428, Ac-A(Dap)(D-Ala)NE(1Nal)(D-Ala)CEDFF9D(tBuGly)(Dap)] returned a Kd of 3.5 nM.

Molecule `C#CCCC(=O)NCCC(=O)N(C)CC(=O)N(C)CC(=O)N(C)CC(=O)N(C)CC(=O)N(C)CC(=O)N(C)CC(=O)N(C)CC(=O)N(C)CC(=O)N(C)CC(=O)N(C)CC(=O)N[C@@H](C)C(=O)N[C@H]1CNCc2cc3cc(c2)CSC[C@H](NC(=O)[C@@H](C)NC(=O)[C@H](Cc2cccc4ccccc24)NC(=O)[C@H](CCC(=O)O)NC(=O)[C@H](CC(N)=O)NC(=O)[C@@H](C)NC1=O)C(=O)N[C@@H](CCC(=O)O)C(=O)N[C@@H](CC(=O)O)C(=O)N[C@@H](Cc1ccccc1)C(=O)N[C@@H](Cc1ccc(O)cc1)C(=O)N[C@@H](CC(=O)O)C(=O)N[C@@H](C(C)(C)C)C(=O)N[C@H](C(N)=O)CNC3` [17-69-07-N434, (PYA)-(B-Ala)-Sar10-A(Dap)(D-Ala)NE(1Nal)(D-Ala)CEDFYD(tBuGly)(Dap)] came in with a Kd of 1.52 nM.

For the setting “Binding Affinity Ki (h), bicycle peptides”, `C#CCCC(=O)N[C@@H](C)C(=O)N[C@H]1CNCc2cc3cc(c2)CSC[C@H](NC(=O)[C@@H](C)NC(=O)[C@H](Cc2cccc4ccccc24)NC(=O)[C@H](CCC(=O)O)NC(=O)[C@H](CC(N)=O)NC(=O)[C@@H](C)NC1=O)C(=O)N[C@@H](CCC(=O)O)C(=O)N[C@@H](CC(=O)O)C(=O)N[C@@H](Cc1ccccc1)C(=O)N[C@@H](Cc1ccc(O)cc1)C(=O)N[C@@H](CC(=O)O)C(=O)N[C@@H](C(C)(C)C)C(=O)N[C@H](C(N)=O)CNC3` [17-69-07-N438, PYA-A(Dap)(D-Ala)NE(1Nal)(D-Ala)CEDFYD(tBuGly)(Dap)] gave a Ki of 3.1 nM.

Consider `C#CCCC(=O)N[C@@H](C)C(=O)N[C@H]1CN(C)Cc2cc3cc(c2)CN(C)C[C@@H](C(N)=O)NC(=O)[C@H](C(C)(C)C)NC(=O)[C@H](CC(=O)O)NC(=O)[C@H](Cc2ccc(O)cc2)NC(=O)[C@H](Cc2ccccc2)NC(=O)[C@H](CC(=O)O)NC(=O)[C@H](CCC(=O)O)NC(=O)[C@H](CSC3)NC(=O)[C@@H](C)NC(=O)[C@H](Cc2cccc3ccccc23)NC(=O)[C@H](CCC(=O)O)NC(=O)[C@H](CC(N)=O)NC(=O)[C@@H](C)NC1=O` [17-69-07-N443, PYA-A(Dap(Me))(D-Ala)NE(1Nal)(D-Ala)CEDFYD(tBuGly)(Dap(Me))], for which the Ki under setting [1] worked out at 3.2 nM.

In the case of `C[C@H](NC(=O)CN(C)C(=O)CN(C)C(=O)CN(C)C(=O)CN(C)C(=O)CN(C)C(=O)CN(C)C(=O)CN(C)C(=O)CN(C)C(=O)CN(C)C(=O)CN(C)C(=O)CCN)C(=O)N[C@H]1CN(C)Cc2cc3cc(c2)CN(C)C[C@@H](C(N)=O)NC(=O)[C@H](C(C)(C)C)NC(=O)[C@H](CC(=O)O)NC(=O)[C@H](Cc2ccc(O)cc2)NC(=O)[C@H](Cc2ccccc2)NC(=O)[C@H](CC(=O)O)NC(=O)[C@H](CCC(=O)O)NC(=O)[C@H](CSC3)NC(=O)[C@@H](C)NC(=O)[C@H](Cc2cccc3ccccc23)NC(=O)[C@H](CCC(=O)O)NC(=O)[C@H](CC(N)=O)NC(=O)[C@@H](C)NC1=O` [17-69-07-N451, (B-Ala)-Sar10-A(Dap(Me))(D-Ala)NE(1Nal)(D-Ala)CEDFYD(tBuGly)(Dap(Me))], under setting [1], the Ki amounted to 3.7 nM.

As to `C[C@H](N)C(=O)N[C@H]1CN(C)Cc2cc3cc(c2)CN(C)C[C@@H](C(N)=O)NC(=O)[C@H](C(C)(C)C)NC(=O)[C@H](CC(=O)O)NC(=O)[C@H](Cc2ccc(O)cc2)NC(=O)[C@H](Cc2ccccc2)NC(=O)[C@H](CC(=O)O)NC(=O)[C@H](CCC(=O)O)NC(=O)[C@H](CSC3)NC(=O)[C@@H](C)NC(=O)[C@H](Cc2cccc3ccccc23)NC(=O)[C@H](CCC(=O)O)NC(=O)[C@H](CC(N)=O)NC(=O)[C@@H](C)NC1=O` [17-69-07-N452, A(Dap(Me))(D-Ala)NE(1Nal)(D-Ala)CEDFYD(tBuGly)(Dap(Me))], the Ki under setting [1] stood at 4 nM.

As to `CC(=O)NCCC(=O)N(C)CC(=O)N(C)CC(=O)N(C)CC(=O)N(C)CC(=O)N(C)CC(=O)N(C)CC(=O)N(C)CC(=O)N(C)CC(=O)N(C)CC(=O)N(C)CC(=O)N[C@@H](C)C(=O)N[C@H]1CN(C)Cc2cc3cc(c2)CN(C)C[C@@H](C(N)=O)NC(=O)[C@H](C(C)(C)C)NC(=O)[C@H](CC(=O)O)NC(=O)[C@H](Cc2ccc(O)cc2)NC(=O)[C@H](Cc2ccccc2)NC(=O)[C@H](CC(=O)O)NC(=O)[C@H](CCC(=O)O)NC(=O)[C@H](CSC3)NC(=O)[C@@H](C)NC(=O)[C@H](Cc2cccc3ccccc23)NC(=O)[C@H](CCC(=O)O)NC(=O)[C@H](CC(N)=O)NC(=O)[C@@H](C)NC1=O` [17-69-07-N454, Ac-(B-Ala)-Sar10-A(Dap(Me))(D-Ala)NE(1Nal)(D-Ala)CEDFYD(tBuGly)(Dap(Me))], under setting [1], the Ki amounted to 3 nM.

For orientation: Kd means the concentration at which binding is half-saturated. A word on the Ki: it is the dissociation constant of the complex between target and ligand, obtained from inhibition or displacement.

The record behind these values is US11730819B2, “Peptide derivatives having novel linkage structures” (priority 2016, dated 2023).
